The record followed here is patent US11026875B2, “Skin restoration product” (Givaudan SA, priority 2016, dated 2021).

In the test the test system is normal human dermal fibroblasts (NHFs). Description: N-sulfated GAG (heparan sulfate) synthesis (production + liberation) by normal human dermal fibroblasts. It counts as cell-based. Particulars: 72 h, cells pellets + supernatants, reported to total proteins, composition at 1 mM. How it is done:
The composition was applied at 0.5 and 1 mM to normal human dermal fibroblasts (NHFs) over a period of 72 hours. Normal human fibroblasts (NHFs), were isolated from the skin dermis of Caucasian women donors (plastic surgery). Cells were seeded at 80 000 fibroblasts/well in 24-wells plates and were left to adhere for 24 hours at 37° C./5% CO2 in complete DMEM (Dulbecco's Modified Eagle Medium) (with antibiotics and FBS, fetal bovine serum).
The cells were then treated with the composition in non-supplemented medium (without FBS) for 72 hours and incubated at 37° C./5% CO2, and then total sGAG (sulfated Glycosaminoglycans) and HS (Heparan sulfate, or N-sulfated GAG) were dosed in culture supernatants and cells pellets (total proteins were dosed in cells pellets). Each product concentration was tested in duplicate. Furthermore, dosages were reported as a proportion of total amount of proteins. At the end of treatment, supernatants were collected. Cells were lysed in a papain containing buffer (Papaya latex Sigma P3125). Cells extracts were collected and centrifuged. Supernatants and cells pellets were dosed for sGAG, HS, or total proteins.
sGAG and HS dosage principles: Total sulfated GAG (sGAG), were dosed using the Blyscan™ sGAG Assay kit (Biocolor B1000 or B3000). The Blyscan™ assay is a quantitative dye-binding method for the analysis of sulfated proteoglycans and glycosaminoglycans (sGAG). The dye label used in the assay is 1,9-dimethylmethylene blue and the dye is employed under conditions that provide a specific label for the sulfated polysaccharide component of proteoglycans or the protein free sulfated glycosaminoglycan chains. The method consists of adding a specific blue dye reagent to an aliquot of supernatants or cells pellets which makes sGAG precipitate (a complex dye-sGAG is formed and precipitates out from the soluble unbound dye).
Centrifugation permitted the collection of a pellet of precipitate at the tube bottom. After having carefully drained the dye, the pellet was solubilized in a dissociation reagent (5-10% Sodium dodecyl sulphate). Absorbance was read at 656 nm in duplicate, in a 96-wells microplate. […] After this reaction, O-sGAG level can be measured using the protocol as normal, and N-sulfated content was subsequently calculated from the difference between the total sGAG value (determined earlier) and the O-sGAG content.
Total proteins dosage principle: Total proteins dosage in cells pellets was performed in parallel by colorimetric method based on bicinchoninic acid (BCA). […] The amount of reduction and of BCA-Cu^+ complex is proportional to the protein concentration present and is quantified by spectrophotometric lecture at 570 nm. […]

For “TGF beta: transforming growth factor beta, used as positive control”, the “N-sulfated GAG synthesis improvement” value runs as follows: (donor one fibroblasts) “+43%”; (donor one fibroblasts, listed as TGFβ) “+43%”; (donor two fibroblasts) “+24%”; (donor two fibroblasts, listed as TGFβ) “+24%”.
